# Test results: patent publication US5312622A, “Acaricidal compositions and process for preparing same” (Richter Gedeon Vegyeszeti Gyar Rt., priority 1992, dated 1994)
# Columns and labels:
# Apis mellifera = settings: bee; comparison value, no test described; cited from earlier work
# Varroa jacobsoni = test: Treatment of Varroa jacobsoni-infected bee families in hives, number of perished mites (Example 38); type: in vivo, Varroa jacobsoni mites on Apis mellifera
# Method: Three families of bees, being present in good condition on nine frames, were infected with `Varroa jacobsoni` to a medium extent, then treated three times, on every third day with the cell-free fermentation broth prepared as described in Example 8 a). Each time, 60 ml of the cell-free fermentation broth prepared as described in Example 8 a) was evenly sprayed by using an airpump spraying device on the honeycomb surfaces and the bees swarming on such surfaces. In addition, each bee family was exposed to the effect of a smoking strip containing 30 mg of amitrase active agent (ANTIVAR for veterinary use) on the third day after the last treatment.
# Three other bee families used as control were treated only with ANTIVAR (30 mg of amitrase) in the periods of treatments by the fermentation broth prepared in Example 8 a). Then the number of perished mites and bees inside the hive was counted and registered. Also, the general condition and behavior of the families and the queen-bee were observed.
# A tray made of aluminum and provided with a 5 mm high folded rim was placed on the floor-plate of the bee-hives. In case of necessity, the tray could be removed or replaced through an appropriately shaped opening made in the plane of the floor-plate, without the need to open the bee-hive itself.
# Under the term of "inhabited strip of the honeycomb" we mean the area stretching between two adjacent sections of the honeycomb was meant where at least 70 to 80% of opposite surfaces of the honeycomb were covered by bees.
# By each treatment, 60 ml of cell-free undiluted fermentation broth, prepared as described in Example 8a) and kept at room temperature, were sprayed by using a manually operated air-jet device onto the entire surface of nine frames holding three families of bees (i.e. onto a surface of 27 216 cm^2 per family). The bees covered the honeycomb surface quite evenly during the spraying. The smoking strip containing the amitrase active agent (ANTIVAR) used as control was bent in a "V"-form and placed onto the aluminum tray, then lit and pushed inside the bee-hive. The exit opening was kept closed for one hour.
# a) The number of perished mites was registered in the 24th, 48th and 72nd hour after treatments.
# Number of perished Varroa jacobsoni mites each per bee family after treatments carried out every 3rd day, 3 times altogether by using the cell-free fermentation broth prepared as described in Example 8a) followed by a treatment with amitrase
# Number of perished "Varroa jacobsoni" mites each per bee family after treatment in every third day, 4 times altogether by using 30 mg of amitrase per treatment (control)
structure (smiles),measurement,setting,value
Cc1ccc(N=CN(C)C=Nc2ccc(C)cc2C)c(C)c1 [amitrase],LD50,Apis mellifera,12 microgram/bee
same,effect,"Varroa jacobsoni; amitrase-treating, as shown in example 38",< 100%
same,Number of perished mites,"Varroa jacobsoni; control group, 4th amitrase treatment (30 mg), 24 h after treatment, bee family No. 1",57
same,Number of perished mites,"Varroa jacobsoni; control group, 4th amitrase treatment (30 mg), 24 h after treatment, bee family No. 2",55
same,Number of perished mites,"Varroa jacobsoni; control group, 4th amitrase treatment (30 mg), 24 h after treatment, bee family No. 3",32
same,Number of perished mites,"Varroa jacobsoni; control group, 4th amitrase treatment (30 mg), 48 h after treatment, bee family No. 1",4
same,Number of perished mites,"Varroa jacobsoni; control group, 4th amitrase treatment (30 mg), 48 h after treatment, bee family No. 2",0
same,Number of perished mites,"Varroa jacobsoni; control group, 4th amitrase treatment (30 mg), 48 h after treatment, bee family No. 3",4
same,Number of perished mites,"Varroa jacobsoni; control group, 4th amitrase treatment (30 mg), 72 h after treatment, bee family No. 1",1
same,Number of perished mites,"Varroa jacobsoni; control group, 4th amitrase treatment (30 mg), 72 h after treatment, bee family No. 2",0
same,Number of perished mites,"Varroa jacobsoni; control group, 4th amitrase treatment (30 mg), 72 h after treatment, bee family No. 3",1
same,"Number of perished mites, Total","Varroa jacobsoni; control group, 4th amitrase treatment (30 mg), total, bee family No. 1",62
same,"Number of perished mites, Total","Varroa jacobsoni; control group, 4th amitrase treatment (30 mg), total, bee family No. 2",55
same,"Number of perished mites, Total","Varroa jacobsoni; control group, 4th amitrase treatment (30 mg), total, bee family No. 3",37
same,Number of perished mites,"Varroa jacobsoni; treatment 1, 24 h after treatment, bee family No. 1",164
same,Number of perished mites,"Varroa jacobsoni; treatment 1, 24 h after treatment, bee family No. 2",241
same,Number of perished mites,"Varroa jacobsoni; treatment 1, 24 h after treatment, bee family No. 3",190
same,Number of perished mites,"Varroa jacobsoni; treatment 1, 48 h after treatment, bee family No. 1",3
same,Number of perished mites,"Varroa jacobsoni; treatment 1, 48 h after treatment, bee family No. 2",12
same,Number of perished mites,"Varroa jacobsoni; treatment 1, 48 h after treatment, bee family No. 3",3
same,Number of perished mites,"Varroa jacobsoni; treatment 1, 72 h after treatment, bee family No. 1",0
same,Number of perished mites,"Varroa jacobsoni; treatment 1, 72 h after treatment, bee family No. 2",1
same,Number of perished mites,"Varroa jacobsoni; treatment 1, 72 h after treatment, bee family No. 3",0
same,"Number of perished mites, Total","Varroa jacobsoni; treatment 1, total, bee family No. 1",167
same,"Number of perished mites, Total","Varroa jacobsoni; treatment 1, total, bee family No. 2",254
same,"Number of perished mites, Total","Varroa jacobsoni; treatment 1, total, bee family No. 3",193
same,Number of perished mites,"Varroa jacobsoni; treatment 2, 24 h after treatment, bee family No. 1",68
same,Number of perished mites,"Varroa jacobsoni; treatment 2, 24 h after treatment, bee family No. 2",87
same,Number of perished mites,"Varroa jacobsoni; treatment 2, 24 h after treatment, bee family No. 3",37
same,Number of perished mites,"Varroa jacobsoni; treatment 2, 48 h after treatment, bee family No. 1",0
same,Number of perished mites,"Varroa jacobsoni; treatment 2, 48 h after treatment, bee family No. 2",3
same,Number of perished mites,"Varroa jacobsoni; treatment 2, 48 h after treatment, bee family No. 3",1
same,Number of perished mites,"Varroa jacobsoni; treatment 2, 72 h after treatment, bee family No. 1",0
same,Number of perished mites,"Varroa jacobsoni; treatment 2, 72 h after treatment, bee family No. 2",1
same,Number of perished mites,"Varroa jacobsoni; treatment 2, 72 h after treatment, bee family No. 3",0
same,"Number of perished mites, Total","Varroa jacobsoni; treatment 2, total, bee family No. 1",68
same,"Number of perished mites, Total","Varroa jacobsoni; treatment 2, total, bee family No. 2",91
same,"Number of perished mites, Total","Varroa jacobsoni; treatment 2, total, bee family No. 3",38
same,Number of perished mites,"Varroa jacobsoni; treatment 3, 24 h after treatment, bee family No. 1",21
same,Number of perished mites,"Varroa jacobsoni; treatment 3, 24 h after treatment, bee family No. 2",35
same,Number of perished mites,"Varroa jacobsoni; treatment 3, 24 h after treatment, bee family No. 3",24
same,Number of perished mites,"Varroa jacobsoni; treatment 3, 48 h after treatment, bee family No. 1",0
same,Number of perished mites,"Varroa jacobsoni; treatment 3, 48 h after treatment, bee family No. 2",2
same,Number of perished mites,"Varroa jacobsoni; treatment 3, 48 h after treatment, bee family No. 3",1
same,Number of perished mites,"Varroa jacobsoni; treatment 3, 72 h after treatment, bee family No. 1",0
same,Number of perished mites,"Varroa jacobsoni; treatment 3, 72 h after treatment, bee family No. 2",0
same,Number of perished mites,"Varroa jacobsoni; treatment 3, 72 h after treatment, bee family No. 3",2
same,"Number of perished mites, Total","Varroa jacobsoni; treatment 3, total, bee family No. 1",21
same,"Number of perished mites, Total","Varroa jacobsoni; treatment 3, total, bee family No. 2",37
same,"Number of perished mites, Total","Varroa jacobsoni; treatment 3, total, bee family No. 3",27
same,Number of perished mites,"Varroa jacobsoni; treatment 4: amitrase (30 mg) after 3 treatments with Example 8a) broth, 24 h, bee family No. 1",225
same,Number of perished mites,"Varroa jacobsoni; treatment 4: amitrase (30 mg) after 3 treatments with Example 8a) broth, 24 h, bee family No. 2",134
same,Number of perished mites,"Varroa jacobsoni; treatment 4: amitrase (30 mg) after 3 treatments with Example 8a) broth, 24 h, bee family No. 3",94
same,Number of perished mites,"Varroa jacobsoni; treatment 4: amitrase (30 mg) after 3 treatments with Example 8a) broth, 48 h, bee family No. 1",24
same,Number of perished mites,"Varroa jacobsoni; treatment 4: amitrase (30 mg) after 3 treatments with Example 8a) broth, 48 h, bee family No. 2",4
same,Number of perished mites,"Varroa jacobsoni; treatment 4: amitrase (30 mg) after 3 treatments with Example 8a) broth, 48 h, bee family No. 3",11
same,Number of perished mites,"Varroa jacobsoni; treatment 4: amitrase (30 mg) after 3 treatments with Example 8a) broth, 72 h, bee family No. 1",0
same,Number of perished mites,"Varroa jacobsoni; treatment 4: amitrase (30 mg) after 3 treatments with Example 8a) broth, 72 h, bee family No. 2",1
same,Number of perished mites,"Varroa jacobsoni; treatment 4: amitrase (30 mg) after 3 treatments with Example 8a) broth, 72 h, bee family No. 3",0
same,"Number of perished mites, Total","Varroa jacobsoni; treatment 4: amitrase (30 mg) after 3 treatments with Example 8a) broth, total, bee family No. 1",249
same,"Number of perished mites, Total","Varroa jacobsoni; treatment 4: amitrase (30 mg) after 3 treatments with Example 8a) broth, total, bee family No. 2",139
same,"Number of perished mites, Total","Varroa jacobsoni; treatment 4: amitrase (30 mg) after 3 treatments with Example 8a) broth, total, bee family No. 3",105
